Experimental data published in patent US9205135B2, “Podocyte pH modulation and uses thereof” (University of Miami, priority 2009, dated 2015).

Experiments:
cathepsin L = experiment: Cathepsin L activity in cultured podocytes, CV-(FR)2 substrate; type: cell-based, mouse; conditions: effect of the injury stimulus itself
Experimental: Subcellular sites of cathepsin L and cathepsin B activity in glomerular extracts were visualized by a fluorogenic substrate, CV-(FR)2, which emits light upon cleavage by cathepsin L or cathepsin B (Biomol).
Measurement of cathepsin L activity: Cathepsin L activities in cultured podocytes and in glomeruli was measured using CV-CatL detection kit (Biomol, Plymouth Meeting, Pa.) as described in the manufacturer's instructions. The fluorophore cresyl violet [CV-(FR)2] substrate becomes florescent after Cat L cleavage of the attached Phe-Arg groups. This substrate easily penetrates the cell membrane and the membranes of the internal cellular organelles, enabling the detection of cathepsin activity within living podocytes.

podocytes [1] = experiment: Glutamine uptake rate in cultured podocytes; type: cell-based, mouse; conditions: injury stimulus
Excerpt: A podocyte metabolic model was constructed based on available databases as well as mRNA and protein expression data extracted from podocytes. The following podocyte culture models were employed: wildtype (control), LPS and PAN stimulated podocytes (inducible injury models) as well as podocytes with genetic deletion of the alpha3 gene (genetic disease model). All injury cultures increase the uptake of glutamine as well as gluconeogenic aminoacids. In addition, there is increasing ammonia production in diseased podocytes. These changes were predicted by the podocyte metabolic model and confirmed by measuring directly amino acids and ammonia (FIGS. 1A-1D).
Metabolic Flux Analysis emphasizes glutamine utilization pathways for podocyte function: We utilized cultured normal podocytes (control) (15) and three in vitro models for podocyte damage: i) podocytes with α3 integrin deletion (genetic model) (16); ii) podocytes treated with lipopolysaccharides (LPS, immunological model) (17); and iii) podocytes treated with puromycin aminonucleoside (PAN, toxic model) (18). […] Using the podocyte MFA network, we were able to extract podocyte aminoacid and glucose utilization (FIG. 10b-d) that was also independently measured in direct validation studies (data not shown). All analyzed modeling and experimentation data supported the notion that the aminoacid metabolism of podocytes is changed in disease. […]

HEK293 = experiment: Glutamine uptake rate in HEK293 cells; type: cell-based
Experimental: (§1) All together, these experiments discovered a uniform metabolic response for podocytes that are injured.
(§2) Cells, antibodies, and standard techniques: Mouse podocyte cell lines (15) and HEK 293 cells (6) were grown as described previously. NIH 3T3 cells were cultured in Dulbecco's modified Eagle's minimal essential medium (Invitrogen, Carlsbad, Calif.) supplemented with 10% fetal calf serum (Invitrogen) and incubated in a humidified atmosphere of 95% air and 5% CO2 at 37° C. Antibody used for immunostaining are Alexa Fluor 594 phalloidin (Molecular Probes, Eugene, Oreg.). Subcellular fractionation was performed as described previously (6).

NIH 3T3 = experiment: Glutamine uptake rate in NIH 3T3 cells; type: cell-based
Experimental: as §1, §2

podocytes [2] = experiment: Intracellular pH of podocytes by phosphorus NMR; type: cell-based, mouse; conditions: after 24 hours of LPS exposure; 7.0 under normal conditions
Experimental: Another example is using phosphorus NMR spectra for untreated and LPS-treated podocytes. Briefly, podocytes are cultured and treated with LPS. 8×10^7 to 1×10^8 cells are harvested and cultured in phosphate-free medium prior to assay. Phosphorous NMR spectra are acquired and analyzed using an iNMR software package. Intracellular pH (pHi) is calculated from the chemical shift difference (d) between the intracellular inorganic phosphate peak (Pi) and the primary phosphate of nucleoside phosphates (Pa) using equation 1.
Measurement of intracellular pH by NMR: Eighty to hundred million podocyte cells were harvested and resuspended in 2-2.5 mL of phosphate-free RPMI medium (MP Biomedicals, Solon, Ohio) with 2.0 mM glutamine (Invitrogen) prior to assay. Phosphorous NMR spectra were acquired on a 14 Tesla Bruker Avance NMR spectrometer (Bruker BioSpin, Billerica, Mass.) with a 10 mm broadband observe (BBO) NMR probe. Cell suspensions were placed in 10 mm (OD) glass NMR tubes (Wilmad LabGlass, Buena, N.J.). Samples were maintained at a temperature of 37° C. […] Spectra were analyzed using the iNMR software package (Mestrelab Research, Spain). Intracellular pH (pHi) was calculated from the chemical shift difference (d) between the intracellular inorganic phosphate peak (Pi) and the primary phosphate of nucleoside phosphates (Pa) using Eq. 1: […]

SNAT3 [3] = experiment: RT-PCR expression of SNAT glutamine transporters in cultured podocytes; type: cell-based, mouse
Experimental: In brief, total RNA from cultured mouse podocytes was isolated with RNA isolation kit (Qiagen, Germantown, Md.) and the amount of RNA was measured by spectrophotometry. Purified RNA was reverse transcribed and PCR performed using PCR Mastercycler (Eppendorf, Westbury, N.Y.).
(§3) RT-PCR: We isolated total RNA from murine cultured podocytes and mouse glomeruli using the Trizol reagent (Invitrogen) according to the manufacturer's instructions. cDNA synthesis was performed with SuperScript II Reverse Transcriptase (Invitrogen) using Oligo(dT)12-18 oligonucleotide primers according to the manufacturer's instructions. All samples were run in duplicates.

SNAT3 [4] = experiment: RT-PCR expression of SNAT glutamine transporters in mouse glomeruli; type: in vivo; conditions: glomeruli of mice stimulated with LPS
Excerpt: Podocytes induce expression of SNAT glutamine transporters during injury: Having identified increased glutamine uptake and utilization as a signature for diseased podocytes that varies from other non-differentiated eukaryotic cells (FIG. 7), we studied the expression of the expression of system A (SNAT1, 2, 4) and system N(SNAT3, 5, 6) family members of sodium-coupled neutral amino acid transporters in cultured podocytes (FIG. 2a). Glutamine is known to be a favored substrate throughout the family, except for SNAT4 (21). We also studied these transporters in isolated mouse glomeruli (FIG. 2a). All SNATs were expressed besides SNAT5, 3 and 4 were only found at low levels. […] SNAT3, formerly known as SN1 (Slc38a3), is known as an antiporter that function in the presence of Na+ and takes up glutamine for the exchange of H+. It is highly expressed on the mRNA and protein level in the kidney during metabolic acidosis and involved in the regulation of acid-base homeostasis (22-24).
as §3

lipopolysaccharides [LPS]
cathepsin L activity in podocytes (cathepsin L): stimulate
glutamine uptake rate (podocytes [1]): stimulated
glutamine uptake rate (HEK293): did not respond
glutamine uptake rate (NIH 3T3): did not respond
podocyte cytosolic pH (NMR) (podocytes [2]): 6.9
SNAT3 mRNA expression (SNAT3 [3]): prominent induction
SNAT3 mRNA expression (SNAT3 [4]): increased markedly
